Results taken from patent US6106866A, “In vivo agents comprising cationic drugs, peptides and metal chelators with acidic saccharides and glycosaminoglycans, giving improved site-selective localization, uptake mechanism, sensitivity and kinetic-spatial profiles, including tumor sites” (Access Pharmaceuticals, Inc., priority 1995, dated 2000).
Entries after “also recorded” stand apart in the source; their conditions may differ.

How the values were obtained:
parent MCF-7 cell line = assay: Clonigenic tumor-cell killing assay, parent MCF-7 (14C-glucose, Bactec, day 9); format: cell-based; conditions: Homo sapiens, MCF7, 216 h
Text: (§1) The paired-ion doxorubicin:dermatan sulfate (essentially purified dermatan sulfate, 435 Type, Opocrin) of Example 28 (=doxorubicin:DS), is compared to standard doxorubicin liquid (Adria Laboratories), for tumor-cell killing potency in a clonigenic assay, using the following human breast cancer cell lines: parent MCF-7 cell line and adriamycin/doxorubicin-resistant MCF-7 cell line. For each group, five serial dilutions of each formulation were mixed on day 0, with an appropriate number of cells, growth medium and ^14 C-labelled glucose, the mixture then injected into serum vials pre-gassed with 5% CO2, and the vials incubated at 37° C. (with cells continuously exposed to drug). […] Results are shown in Table 5 for the day of peak counts (day 9): […]

[1] = tested on: adriamycin/doxorubicin-resistant MCF-7 cell line; assay: Clonigenic tumor-cell killing assay, doxorubicin-resistant MCF-7 (14C-glucose, Bactec, day 9); format: cell-based, human
Text: as §1

[2] = Acute in vivo toxicity of doxorubicin:dermatan sulfate vs standard doxorubicin (day of death); design: species or system male Balb/c mice; conditions: 22.5 mg/Kg i.v.
Text: The days of death are: doxorubicin:DS: modal day=6, mean=5.5±0.9 SE; standard doxorubicin: modal day=day 5, mean=4.8±0.5SE.

AT-1 prostate carcinomas = assay: Acute in vivo tumor localization and tumor-cell internalization by fluorescence microscopy; design: species or system Copenhagen rats
Protocol: FIG. 21A. Frozen 8-micron thick section of prostate adenocarcinoma (outer 2/3 of tumor of ca. 4 cm diameter), excised from its host rat (Copenhagen strain, syngeneic) 3 hours after intravenous injection of 5 mg/Kg doxorubicin:DS (doxorubicin in association with essentially purified dermatan sulfate, 435 Type, Opocrin) at a weight ratio of 60:40 (doxorubicin to dermatan sulfate), and fluorescence microscopy performed using a rhodamine-type filter to elicit direct fluorescence of the doxorubicin drug substance (see also Example 29). […] This is indicative of high tumor-cell internalization of the doxorubicin drug substance.
The paired-ion doxorubicin:dermatan sulfate (essentially purified dermatan sulfate, 435 Type, Opocrin) of Example 28 (=doxorubicin:DS) and standard doxorubicin liquid (Adria Laboratories) are injected at 5 mg/kg of doxorubicin i.v., into Copenhagen rats with AT-1 prostate carcinomas grown in a skin pouch (to mimic growth at deep organ sites). The rats are sacrificed at 3 hours after injection, the tumors and major organs removed, the cut tumors & organ pieces placed in OCT polymer and frozen at […], and cryostat sections cut at 8 um and coverslipped. Fluorescence microscopy is performed by exciting the sections using a rhodamine-type bandpass filter (at ca. 485 nm--in order to selectively excite doxorubicin) and assessing direct doxorubicin fluorescence (at an emission wavelength greater than 530 nm) to determine the following: […]

[3] = mouse, in vivo; cited from earlier work

COc1cccc2c1C(=O)c1c(O)c3c(c(O)c1C2=O)C[C@@](O)(C(=O)CO)C[C@@H]3O[C@H]1C[C@H](N)[C@H](O)[C@H](C)O1 [Standard doxorubicin]
IC50 (parent MCF-7 cell line): 20 nM | IC90 (parent MCF-7 cell line): 60 nM | ability to overcome resistance [1]: unable to do so | IC50 ([1]; Homo sapiens, MCF7, 216 h, day 9): 22300 nM | IC90 ([1]; day 9): not achieved | modal day of death [2]: 5 days | mean day of death ([2]; ± SE): 4.8 ± 0.5 days | direct drug fluorescence in tumor cells (AT-1 prostate carcinomas; 5 mg/Kg i.v., 3 hours): markedly lower fluorescence | fluorescence of endothelium / microvessels (AT-1 prostate carcinomas; 5 mg/Kg i.v., 3 hours): general lack of fluorescence in and around the large tumor microvessel; also recorded: general lack of fluorescence in and around tumor microvessel (image center) and in tumor-cell nuclei | fluorescence of tumor-cell nuclei (AT-1 prostate carcinomas; 5 mg/Kg i.v., 3 hours): no identifiable fluorescence in the tumor-cell nuclei | Fluorescence near capillaries (scale of 0 to 4+) (AT-1 prostate carcinomas; 2/3 of regions): 0 | Fluorescence away from capillaries (scale of 0 to 4+) (AT-1 prostate carcinomas; Adriamycin PFS: most regions, doxorubicin:DS: ca. 8/10 of regions): 0 | Endothelial fluorescence (scale of 0 to 4+) (AT-1 prostate carcinomas; rat, in vivo): 0 | Endothelial nuclear fluorescence (scale of 0 to 4+) (AT-1 prostate carcinomas; rat, in vivo): 0 | reported LD90 in mice [3]: 22.5 mg/kg
